Assay results: US12590118B2, “Salt and crystal form of steroid derivative regulator” (Shanghai Hansoh Biomedical Co., Ltd., priority 2019, dated 2026)

Experiments:
ICR mice = experiment: Forced swimming model in mice; format: in vivo; conditions: for Mean (immobility, %): floating time/240 s; for immobility time during the latter four minutes compared with that of the model group: forced swimming, ICR mice
Procedure, shortened: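 Male ICR mice (25-35 g), 12 per group, dosed intragastrically at brain Tmax with 10 mg/kg or 5 mg/kg p.o. in 0.5% CMC-Na + 1% Tween 80. Forced swim 0.5-1 h post-dose for 6 min in 25-26° C. water, 18 cm deep. Immobility over last 4 min, given as floating time percentage of 240 s.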

CD-1 mice = experiment: PTZ-induced epilepsy model in mice; format: in vivo; conditions: 3 mpk p.o., PTZ 120 mg/kg s.c., 30 min observation
Experimental: The PTZ-induced epilepsy model in CD-1 mice was established, and the antiepileptic effect of the compounds of Example 2, Example 40, Example 41 and Example 52 was evaluated using this model.
50 male CD-1 mice were purchased from Beijing Vital River Laboratory Animal Technology Co. Ltd. The test animals were adapted at the animal room in the third building of Shanghai ChemPartner Co., Ltd for 7 days before the experiment. The average body weight of the animals on the test day was 32.2±0.2 grams. Feeding environment: 5 animals/cage, room temperature 23±2° C., 12/12 hours of light and dark cycle, free access to food and water.
The mice were randomly grouped for the experiment on the test day.
Compounds of Example 2, Example 40, Example 41 and Example 52 (prepared by the applicant). The test compounds were stored in a refrigerator at 4° C.
4.2.3 Test Equipments • 1 ml sterile disposable syringe with needle (purchased from Zhejiang Kangdelai Medical Devices Co., Ltd.) • Pipette: Eppendorf Research Plus (100-1000 μL) • Vortex mixer: Kylin-Bell Vortex 5 • Ultrasonic instrument: JL-360 ultrasonic cleaner • Balance: METTLER TOLEDO XS204 precision balance • Balance: METTLER TOLEDO XS6002S electronic balance • Plexiglass box: 25 cm length*15 cm width*15 cm height with one opaque side wall, custom made by Suzhou Fengshi Laboratory Animal Equipment Co., Ltd • 3-channel timer: Oregon/Model NO. WB-388. 4.2.4 Test Animal Grouping • 1) Vehicle/PTZ: 0.5% CMC-Na+1% Tween-80 (10 ml/kg, p.o.), administered 0.5 hr before the PTZ administration; PTZ ([…], s.c.), administered before the experiment; • 2) 3 mg/kg of the compounds of Examples/PTZ: the compounds of Example 2, Example 40, Example 41 and Example 52 (3 mg/kg, 10 ml/kg, p.o.), administered 0.5 hr before the PTZ administration; PTZ ([…], s.c.), administered before the experiment. 4.3 Experimental Procedures 4.3.1 Solvent Formulation • 1) 0.5% CMC-Na+1% Tween-80 (administration volume: 10 mL/kg):
1 g of sodium carboxymethyl cellulose was precisely weighed and added to a 250 mL solvent bottle, then 150 mL of double-distilled water was added. The mixture was stirred at room temperature for 4 hours with a magnetic stirrer to obtain a uniform and clear solution. 2 mL of Tween-80 was slowly added, and the mixture was stirred at room temperature for 3 hours to obtain a uniform and clear solution. The solution was slowly transferred to a 200 mL volumetric flask, and double distilled water was added to the constant volume of 200 mL. The solution was transferred to a 250 mL solvent bottle, and stirred for 1 hour with a magnetic stirrer to obtain a uniform and clear solution. • 2) 30% hydroxypropyl-p-cyclodextrin:
248 mg of PTZ was precisely weighed and added to a 40 mL brown flask, then 20.667 mL of physiological saline was added. The mixture was mixed by vortex for 2 minutes, and treated by ultrasound at room temperature for 2 minutes to obtain a uniform and clear solution (concentration: 12 mg/mL). • 2) 0.3 mg/mL of the compounds of Example 5 or Example 23 (dose: 3 mg/kg; administration volume: 10 mL/kg): […]
4.4 Adaptation to the Environment
The mice were randomly grouped, marked and weighed; 10 mice per group. The test compound was administered orally at an administration volume of 10 mL/kg 30-60 minutes before the PTZ administration.
PTZ (120 mg/kg) was administrated subcutaneously before the experiment observation, and this time point was recorded as the observation start point; after the administration of PTZ, the animal was immediately placed in the observation box and observed for 30 minutes, and the followings were recorded: a) the incubation period of the first clonic seizure, b) the incubation period of the first generalized tonic seizure, c) the number of clonic seizures, d) the number of generalized tonic seizures, e) the time when the animal died.
All measurement data were expressed as Mean±SEM, and analysed with Prism 6.0 statistical software.

| SMILES | Mean (immobility, %) (ICR mice; dose 10 mpk p.o.) | immobility time during the latter four minutes compared with that of the model group (ICR mice) | Incubation period of the clonic seizure (sec) Mean ± SEM (CD-1 mice) | Incubation period of the generalized tonic seizure (sec) Mean (CD-1 mice) | Mortality rate (%) (CD-1 mice) | Number of clonic seizures Mean (CD-1 mice) | Number of generalized tonic seizures Mean (CD-1 mice) | Time when the animal died (sec) Mean (CD-1 mice) | Mean (immobility, s) (ICR mice; dose 10 mpk p.o., latter four minutes of 6 min swim) |
| --- | --- | --- | --- | --- | --- | --- | --- | --- | --- |
| C[C@@]1(O)CC[C@H]2[C@H](CC[C@@H]3[C@@H]2CC[C@@]2(C)[C@H]3[C@@H]3C[C@@H]3[C@@H]2C(=O)Cn2ccc(C#N)n2)C1 [Example 2, 1-(2-((2R,4aS,4bR,6aS,7S,7aS,8aR,8bR,8cR,10aR)-2-Hydroxy-2,6a-dimethyloctadecahydrocyclopropa[4,5]cyclopenta[1,2-a]phenanthren-7-yl)-2-oxoethyl)-1H-pyrazole-3-carbonitrile] | 28.50% | very significantly different | 902.9 ± 200.8 s | 1736.0 ± 63.2 s | 10% | 1.3 ± 0.3 | 0.1 ± 0.1 | 1739.8 ± 60.2 s |  |
| C[C@@H]1C[C@H](C(=O)Cn2ccc(C#N)n2)[C@@]2(C)CC[C@H]3[C@@H](CC[C@@H]4C[C@](C)(O)CC[C@@H]43)[C@H]12 [Example 40, 1-(2-((3R,5R,8R,9R,10S,13S,14S,15R,17S)-3-Hydroxy-3,13,15-trimethylhexadecahydro-1H-cyclopenta[a]phenanthren-17-yl)-2-oxoethyl)-1H-pyrazole-3-carbonitrile] | 35.30% | very significantly different | 1308.1 ± 170.1 s | 1800.0 ± 0.0 s | 0% | 0.5 ± 0.2 | 0.0 ± 0.0 | 1800.0 ± 0.0 s | 84.90 s |
